In ChEMBL document CHEMBL1671627, “Increasing trends in antimicrobial resistance among clinically important anaerobes and Bacteroides fragilis isolates causing nosocomial infections: emerging resistance to carbapenems” (2008):
≈ marks a conversion by molar mass, not a printed value.

What was measured:
Format in all cases: functional
Bacteroides uniformis [1] = assay: Antibacterial activity against beta-lactamase producing Bacteroides uniformis by CLSI agar dilution method
Bacteroides uniformis [2] = assay: Antibacterial activity against beta-lactamase producing Bacteroides uniformis assessed as resistant isolates by CLSI agar dilution method
Clostridium septicum [3] = assay: Antibacterial activity against beta-lactamase producing Clostridium septicum by CLSI agar dilution method
Finegoldia magna = assay: Antibacterial activity against beta-lactamase producing Finegoldia magna by CLSI agar dilution method
Phocaeicola vulgatus [4] = assay: Antibacterial activity against beta-lactamase producing Bacteroides vulgatus by CLSI agar dilution method
[5] = tested on: Bacteroides thetaiotaomicron; assay: Antibacterial activity against beta-lactamase producing Bacteroides thetaiotaomicron assessed as susceptible isolates by CLSI agar dilution method
[6] = tested on: Clostridium paraputrificum; assay: Antibacterial activity against beta-lactamase producing Clostridium paraputrificum by CLSI agar dilution method
Parvimonas micra [7] = assay: Antibacterial activity against beta-lactamase producing Micromonas micros by CLSI agar dilution method
Fusobacterium nucleatum = assay: Antibacterial activity against Fusobacterium nucleatum assessed as resistant isolates by CLSI agar dilution method
Prevotella bivia [8] = assay: Antibacterial activity against Prevotella bivia by CLSI agar dilution method
Clostridium tertium = assay: Antibacterial activity against beta-lactamase producing Clostridium tertium assessed as resistant isolates by CLSI agar dilution method
Bacteroides fragilis = assay: Antibacterial activity against Bacteroides fragilis by CLSI agar dilution method
Fusobacterium mortiferum [9] = assay: Antibacterial activity against Fusobacterium mortiferum assessed as susceptible isolates by CLSI agar dilution method
[10] = tested on: Peptostreptococcus anaerobius; assay: Antibacterial activity against beta-lactamase producing Peptostreptococcus anaerobius by CLSI agar dilution method
Fusobacterium mortiferum [11] = assay: Antibacterial activity against Fusobacterium mortiferum assessed as resistant isolates by CLSI agar dilution method
Parvimonas micra [12] = assay: Antibacterial activity against beta-lactamase producing Micromonas micros assessed as resistant isolates by CLSI agar dilution method
[13] = tested on: Prevotella melaninogenica; assay: Antibacterial activity against Prevotella melaninogenica by CLSI agar dilution method
[14] = tested on: Bacteroides thetaiotaomicron; assay: Antibacterial activity against beta-lactamase producing Bacteroides thetaiotaomicron assessed as resistant isolates by CLSI agar dilution method
[15] = tested on: Clostridium paraputrificum; assay: Antibacterial activity against beta-lactamase producing Clostridium paraputrificum assessed as susceptible isolates by CLSI agar dilution method
Prevotella bivia [16] = assay: Antibacterial activity against Prevotella bivia assessed as susceptible isolates by CLSI agar dilution method
[17] = tested on: Peptoniphilus asaccharolyticus; assay: Antibacterial activity against beta-lactamase producing Peptoniphilus asaccharolyticus assessed as susceptible isolates by CLSI agar dilution method
[18] = tested on: Fusobacterium necrophorum; assay: Antibacterial activity against Fusobacterium necrophorum assessed as resistant isolates by CLSI agar dilution method
Clostridium perfringens = assay: microbe, parasite or virus in culture
Prevotella bivia [19] = assay: Antibacterial activity against Prevotella bivia assessed as resistant isolates by CLSI agar dilution method
Bacteroides caccae = assay: Antibacterial activity against beta-lactamase producing Bacteroides caccae assessed as susceptible isolates by CLSI agar dilution method
Phocaeicola vulgatus [20] = assay: Antibacterial activity against beta-lactamase producing Bacteroides vulgatus assessed as susceptible isolates by CLSI agar dilution method
Clostridium septicum [21] = assay: Antibacterial activity against beta-lactamase producing Clostridium septicum assessed as resistant isolates by CLSI agar dilution method
Fusobacterium varium [22] = assay: Antibacterial activity against Fusobacterium varium by CLSI agar dilution method
Fusobacterium varium [23] = assay: Antibacterial activity against Fusobacterium varium assessed as resistant isolates by CLSI agar dilution method

Work on `Cc1ncc([N+](=O)[O-])n1CCO` [METRONIDAZOLE] yielded an MIC50 (Bacteroides uniformis [1]) of 1 µg/mL (≈ 5.84 µM), an MIC90 (Bacteroides uniformis [1]) of 4 µg/mL (≈ 23.4 µM) and an Activity (Bacteroides uniformis [2]) of 0%. It also gave an MIC50 (Clostridium septicum [3]) of 8 µg/mL (≈ 46.7 µM), an MIC90 (Clostridium septicum [3]) of 16 µg/mL (≈ 93.5 µM) and an MIC50 (Finegoldia magna) of 0.5 µg/mL (≈ 2.92 µM). The MIC90 (Finegoldia magna) was 16 µg/mL (≈ 93.5 µM), the MIC50 (Phocaeicola vulgatus [4]) was 1 µg/mL (≈ 5.84 µM) and the MIC90 (Phocaeicola vulgatus [4]) was 4 µg/mL (≈ 23.4 µM). For the same compound, the Activity [5] was 100%, the MIC50 [6] was 8 µg/mL (≈ 46.7 µM) and the MIC90 [6] was 16 µg/mL (≈ 93.5 µM). It also gave an MIC50 (Parvimonas micra [7]) of 0.5 µg/mL (≈ 2.92 µM), an MIC90 (Parvimonas micra [7]) of 16 µg/mL (≈ 93.5 µM) and an Activity (Fusobacterium nucleatum) of 0%. It also gave an MIC50 (Prevotella bivia [8]) of 1 µg/mL (≈ 5.84 µM), an MIC90 (Prevotella bivia [8]) of 8 µg/mL (≈ 46.7 µM) and an Activity (Clostridium tertium) of 11%. For the same compound, the MIC50 (Bacteroides fragilis) was 2 µg/mL (≈ 11.7 µM), the MIC90 (Bacteroides fragilis) was 8 µg/mL (≈ 46.7 µM) and the Activity (Fusobacterium mortiferum [9]) was 100%. The MIC50 [10] was 0.5 µg/mL (≈ 2.92 µM), the MIC90 [10] was 16 µg/mL (≈ 93.5 µM) and the Activity (Fusobacterium mortiferum [11]) was 0%. It also gave an Activity (Parvimonas micra [12]) of 9%, an MIC50 [13] of 1 µg/mL (≈ 5.84 µM) and an MIC90 [13] of 8 µg/mL (≈ 46.7 µM). For the same compound, the Activity [14] was 0%, the Activity [15] was 64% and the Activity (Prevotella bivia [16]) was 94%. For the same compound, the Activity [17] was 88%, the Activity [18] was 0% and the MIC50 (Clostridium perfringens) was 8 µg/mL (≈ 46.7 µM). For the same compound, the MIC90 (Clostridium perfringens) was 16 µg/mL (≈ 93.5 µM), the Activity (Prevotella bivia [19]) was 0% and the Activity (Bacteroides caccae) was 100%. For the same compound, the Activity (Phocaeicola vulgatus [20]) was 100%, the Activity (Clostridium septicum [21]) was 11% and the MIC50 (Fusobacterium varium [22]) was 0.5 µg/mL (≈ 2.92 µM). For the same compound, the MIC90 (Fusobacterium varium [22]) was 1 µg/mL (≈ 5.84 µM) and the Activity (Fusobacterium varium [23]) was 0%.
